Columns and labels:
Assay type in all cases: cell-based
[1] = test system: HCC1937 cells (with BRCA1 mutation); assay: CellTiter-Glo viability assay in HCC1937 cells
Experimental: […] (HCC1937, with BRCA1 mutation) cells were harvested using trypsin (0.5 ml per well) and the media was saved from each well. The saved media were resuspended with the trypsinised cells and 2-3 aliquots (0.05 ml each) of this suspension was transferred to 96-well plates. HCC cells were subjected to S1 and S2 as described above. A CellTiter-Glo™ Luminescent Viability assay was used to measure the viability of these aliquots by adding 0.15 mL of the CTG-media mixture to each well. The rest of the culture was used to extract protein. Viability of cells was measured using the 1:1 dilution of the CellTiter-Glo™ Luminescent reagent (Promega™) with media, which was read on a Victor 5™ plate reader after 10 minutes of shaking at room temperature. The intensity of luminescence was normalized to that of the DMSO control.
Without being bound to any particular theory, it is believed that this is because PARP1 is inhibited which is known to cause death in BRCA1 deficient breast cancer cell lines.

[2] = test system: EGF mRNA; assay: qRT-PCR of EGF mRNA; details: U87 cells
Experimental: (§1) For most RNA experiments, RNA was isolated from cells using the Qiagen™ RNeasy minikit. Complementary DNA was generated using the Qiagen™ Quantitect™ reverse transcription kit with 0.5 μg of input RNA as measured with a NanoDrop spectrophotometer (Thermo Scientific™). Real-time PCR was carried out on an ABI StepOne Plus™ machine using power SYBR Green dye (Thermo Scientific™). Transcript levels were assayed in triplicate and normalized to RPL32 and HPS90 mRNAs. Relative changes in cDNA levels were calculated using the comparative Ct method (ΔΔCT method). All RT-qPCR primers were designed with Primer3Plus™ or retrieved from Primerbank™. Primer sequences are listed here, including in Table 3. All primers were purchased from Life Technologies™. H. Generation of p53 Knock Out U87 Cell Lines by CRISPR
How C9 levels affect EGF signaling was investigated. […] Furthermore, after 48 and 72 hours, the reduction of EGF mRNA levels was about 97%. See FIG. 39, which presents data from qRT-PCR analysis, showing mRNA levels of C9ORF72 and EGF in U87 cells treated with control or C9 siRNA for 24, 48 and 72 hours (represented as fold change). Statistical significance was assessed by an unpaired t-test: NS P>0.05, *P≤0.05, **P≤0.01, ***P≤0.001 ****P 0.0001.

[3] = test system: p53 null U87 cells; assay: qRT-PCR in p53 null U87 KO #4 cells
Experimental: as §1
See FIG. 32, which presents RT-qPCR analysis of C9ORF72, CDKN1A (p21), PUMA, MDM2 and PARP1 mRNA levels in U87 KO #4 cells treated with control (siCtrl) and C9 (siC9; SEQ ID NO:631) siRNA. These experiments were performed in three biological replicates (n=3) and error bars represent S.E.M. Statistical significance was assessed by unpaired t-test: NS P>0.05, *P≤0.05, **P≤0.01, ***P≤0.001 ****P≤0.0001.

[4] = test system: U87 cells; assay: β-Galactosidase staining (senescence)
Experimental: β-Galactosidase staining was performed using a Senescence™ β-Galactosidase Staining Kit (Cell Signaling™, #9860) and used according to manufacturer's instructions.
To confirm that cells undergo non-apoptotic death, apoptosis was blocked with a broad caspase inhibitor Z-VAD-FMK upon C9 KD. […] Additionally, the apoptosis inducer, staurosporine (STS), was used to asses Z-VAD-FMK efficacy. […] A beta galactosidase staining technique was used to asses senescence upon C9 KD. […] See FIG. 20, for which U87 cells were treated with control (siCtrl) and C9 (siC9; SEQ ID NO:631) siRNA and then subjected to β-Galactosidase Staining.

[5] = test system: U87 cells; assay: Transmission electron microscopy of vacuoles; details: 72 hours of KD
Experimental: Since endocytic vacuoles (including macropinosomes) are known to have a single membrane U87 cells treated with control and siC9 siRNA (SEQ ID NO:631) were imaged using transmission electron microscopy (TEM). […] FIG. 13 is a set of representative TEM images of U87 cells treated with Control (siCtrl) and C9 (siC9) siRNA after 72 hours of KD. One asterisk indicates representative vacuoles; two asterisks represent membrane folding. The white boxes in FIG. 13A and FIG. 13B show locations for the digital zoomed-in images below, in FIG. 13C and FIG. 13D. The scale bar represents 5 μm.

[6] = test system: PARP1 mRNA; assay: qRT-PCR of PARP1 mRNA; details: U87 cells
Experimental: as §1
Statistical significance was assessed by an unpaired t-test: NS P>0.05, *P≤0.05, **P≤0.01, ***P≤0.001 ****P≤0.0001.

[7] = test system: RAS/RAC1 signaling pathway; assay: Western blot of RAS, RAC1 and phospho-ERK; details: U87 cells
Experimental: For Western blot analysis, cells were lysed with lysis buffer (20 mM sodium phosphate (pH 7.0), 250 mM NaCl, 30 mM sodium pyrophosphate, 0.1% Nonidet™ P-40, 5 mM EDTA, 10 mM NaF, 0.1 mM Na3VO4, and 1 mM PMSF) supplemented with complete protease inhibitors (Roche™) and homogenized by passage through a 28 gauge needle. Protein concentration was measured with a Bio-Rad™ protein assay dye reagent and results were read using a spectrophotometer (BiophotometerPlus™ by Eppendorf™). Protein extracts were resolved by SDS PAGE on gradient (Thermo Fisher™) or 12% gels. Proteins were then electrotransferred at 350 mA for 80 minutes onto a PVDF membrane (Immobilon-P PVDF). Membranes were blocked with PBST with 5% milk and 1% BSA for 30 minutes. Quantitation of blots was performed Image Studio Lite software (LI-COR Biosciences™).
Macropinocytosis is reported to be dependent on RAS and/or RAC1 activation, therefore whether the RAS/RAC1 signaling pathway is activated upon C9 KD was explored. First, RAS and RAC1 protein levels were measured in U87 cells upon C9 KD. […] If the RAS/RAC1 pathway is active, then ERK1/2 phosphorylation should be observed. FIG. 14 is a WB of U87 cells treated with control (siCtrl) and C9 siRNA (siC9; SEQ ID NO:631) measuring protein levels of RAS and phospho-ERK and loading control actin (left) and a WB showing RAC1 levels under the same conditions with actin as loading control (right). […] Therefore both macropinocytosis and RAS/RAC1 signaling pathways are a possible therapeutic targets in C9 ALS.

siC9: siRNA targeting C9 mRNA: UUAAUGAAACAAUAAUCACUC (SEQ ID NO:631; sense) and GUGAUUAUUGUUUCAUUAAUC (SEQ ID NO:632; antisense) (listed as RNA, chemistry not given here)
cell viability [1]: decrease in their viability | reduction of EGF mRNA levels ([2]; 24 hours after C9 KD): 50% | reduction of EGF mRNA levels ([2]; 48 hours): about 97% | reduction of EGF mRNA levels ([2]; 72 hours): about 97% | PUMA and MDM2 mRNA ([3]; p53 null U87 KO #4 cells): lower levels | p21 mRNA ([3]; p53 null U87 KO #4 cells): did not result in a significant change | PARP1 mRNA ([3]; p53 null U87 cells): repression was also observed | nucleus and cell size [4]: increase in both nucleus and cell size | β-galactosidase staining (senescence) [4]: did not stain with the assay | vacuole appearance in TEM [5]: electron-transparent and had a single membrane | PARP1 mRNA [6]: significant repression | RAC1 protein levels [7]: elevated | RAS protein levels [7]: elevated | phosphorylation of ERK1/2 [7]: increased phosphorylation

From patent publication US20210108199A1, “Treatment for aggressive cancers by targeting C9ORF72” (The Trustees of Columbia University in the City of New York, priority 2017, published 2021)
